According to patent US11905249B2, “Covalent inhibitors of equine encephalitis virus” (priority 2021, dated 2024):
Where two headings read alike, the source gives them in different places.

Key:
VEEV TC83 [1] = test: microbe, parasite or virus in culture; format: cell-based, Venezuelan equine encephalitis virus
VEEV TC83 [2] = test: microbe, parasite or virus in culture; format: cell-based, Venezuelan equine encephalitis virus; remark: listed apart in the source
VEEV nsP2 protease = VEEV nsP2 protease (Venezuelan equine encephalitis virus, UniProt P27282); test: biochemical; settings: read-out: estimated percentage inhibition of VEEV nsP2
VEEV (IC-SH3) [3] = test: microbe, parasite or virus in culture; format: cell-based; settings: Venezuelan equine encephalitis virus, Vero, read-out: EC50 (Vero)
VEEV (IC-SH3) [4] = test: microbe, parasite or virus in culture; format: cell-based; settings: Venezuelan equine encephalitis virus, HeLa, read-out: EC50 (HeLa)
[5] = Venezuelan equine encephalitis virus, read-out: Human BE(2)-M17 (TC83) EC50 (μM)
[6] = Venezuelan equine encephalitis virus, N2a, in Mus musculus, read-out: Mouse Neuro-2a (TC83) EC50 (μM)

Chain of VEEV nsP2 protease (P27282 1003-1322 limits assumed): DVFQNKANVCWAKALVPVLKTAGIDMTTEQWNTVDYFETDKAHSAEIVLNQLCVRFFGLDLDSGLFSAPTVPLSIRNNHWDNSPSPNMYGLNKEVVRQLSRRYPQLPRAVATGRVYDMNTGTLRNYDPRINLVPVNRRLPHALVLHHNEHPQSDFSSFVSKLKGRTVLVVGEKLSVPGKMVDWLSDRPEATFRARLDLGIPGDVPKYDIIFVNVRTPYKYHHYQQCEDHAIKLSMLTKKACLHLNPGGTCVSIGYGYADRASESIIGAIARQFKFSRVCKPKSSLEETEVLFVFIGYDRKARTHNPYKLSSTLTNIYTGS

| Structure (SMILES) | EC50 (VEEV TC83 [1]; [5]) [µM] | EC50 (VEEV TC83 [2]; [6]) [µM] | Human BE(2)-M17 (TC83) CC50 (BE(2)-M17 cells; human) [µM] | Mouse Neuro-2a (TC83) CC50 (Neuro-2a cells; mouse) [µM] | other results |
| --- | --- | --- | --- | --- | --- |
| O=C(N[C@H](/C=C/S(=O)(=O)c1ccccc1)Cc1ccccc1)c1cccc2c1NCCC2 [Compound 43] | > 25 | > 25 | >25.00 | >25.00 | – |
| COC(=O)/C=C/[C@H](C)NC(=O)c1cccc2c1NC(C)(C)C[C@H]2C [Compound 25] | > 25 | > 25 | >25.00 | >25.00 | – |
| COC(=O)/C=C/CNC(=O)c1c[nH]c2ccc(C)cc12 [Compound 21] | > 25 | > 25 | >25.00 | >25.00 | – |
| COC(=O)/C=C/CNC(=O)c1cccc2ccc(C)nc12 [Compound 18] | > 25 | > 25 | >25.00 | >25.00 | – |
| CS(=O)(=O)/C=C/CNC(=O)c1ccccc1Nc1ccccc1 [Compound 32] | > 25 | > 25 | 27.14 | >25.00 | – |
| CC1=CC(C)(C)Nc2c(C(=O)NC(C)(C)/C=C/S(C)(=O)=O)cccc21 [Compound 38] | > 25 | > 25 | >25.00 | >25.00 | – |
| C[C@@H]1CC(C)(C)Nc2c(C(=O)NC(C)(C)/C=C/S(C)(=O)=O)cccc21 [Compound 39] | > 25 | > 25 | >25.00 | >25.00 | – |
| C[C@@H]1CC(C)(C)Nc2c(C(=O)N[C@H](/C=C/S(=O)(=O)c3ccccc3)Cc3ccccc3)cccc21 [Compound 42] | > 25 | > 25 | >25.00 | >25.00 | – |
| COC(=O)/C=C/C(C)(C)NC(=O)c1cccc2c1NC(C)(C)C[C@H]2C [Compound 27] | > 25 | > 25 | >25.00 | >25.00 | – |
| CN1CCN(C)C(=Nc2ccc([N+](=O)[O-])cc2C(=O)Nc2ccccc2)C1 [ML336, reference compound] | – | – | – | – | EC50 (VEEV TC83 [1]; read-out: Human BE(2)-M17 (TC83) EC50): 0.01 µM; EC50 (VEEV TC83 [2]; read-out: Mouse Neuro-2a (TC83) EC50): 0.02 ± 0.01 µM; Human BE(2)-M17 (TC83) CC50 (BE(2)-M17 cells): >2.50 µM; Mouse Neuro-2a (TC83) CC50 (Neuro-2a cells): >2.5 µM |
| COC(=O)/C=C/CNC(=O)c1ccccc1Nc1cccc(Cl)c1Cl [Compound 20] | > 25 | > 25 | >25.00 | 1.52 | – |
| CC1=CC(C)(C)Nc2c(C(=O)N[C@@H](C)/C=C/S(C)(=O)=O)cccc21 [Compound 12] | – | – | – | – | inhibition at 0.9 µM (VEEV nsP2 protease): ~59% |
| COC(=O)/C=C/[C@H](Cc1ccccc1)NC(=O)c1c[nH]c2ccc(Cl)cc12 [Compound 28] | > 50 | > 50 | >50.00 | >50.00 | – |
| CC1=CC(C)(C)Nc2c(C(=O)N[C@H](/C=C/S(C)(=O)=O)Cc3ccccc3)cc(C)cc21 [Compound 37] | 31.7 ± 16.7 | > 50 | >50.00 | >50.00 | – |
| CC1=CC(C)(C)Nc2c(C(=O)N[C@H](/C=C/S(=O)(=O)c3ccccc3)Cc3ccccc3)cccc21 [Compound 41] | > 25 | > 25 | >25.00 | >25.00 | – |
| Cc1ccc(Cl)c(Nc2ccccc2C(=O)NC/C=C/S(C)(=O)=O)c1Cl [Compound 35] | 18.2 ± 0.93 | > 25 | 14.50 | >25.00 | – |

| Structure (SMILES) | EC50 (VEEV TC83 [1]; [5]) [µM] | EC50 (VEEV TC83 [2]; [6]) [µM] | Human BE(2)-M17 (TC83) CC50 (BE(2)-M17 cells; human) [µM] | Mouse Neuro-2a (TC83) CC50 (Neuro-2a cells; mouse) [µM] | other results |
| --- | --- | --- | --- | --- | --- |
| COC(=O)/C=C/CNC(=O)c1cccc2cccnc12 [Compound 17] | > 25 | > 25 | >25.00 | >25.00 | – |
| COc1ccc2[nH]cc(C(=O)N[C@H](/C=C/S(=O)(=O)c3ccccc3)Cc3ccccc3)c2c1 [Compound 40] | 23.9 ± 5.33 | > 25 | >25.00 | >25.00 | – |
| COC(=O)/C=C/CNC(=O)c1cccc2nccnc12 [Compound 22] | > 25 | > 25 | >25.00 | >25.00 | – |
| COC(=O)/C=C/[C@H](Cc1ccccc1)NC(=O)c1cccc2c1NC(C)(C)C=C2C [Compound 29] | > 50 | > 50 | >50.00 | >50.00 | – |
| CS(=O)(=O)/C=C/CNC(=O)c1cccc2nccnc12 [Compound 34] | > 25 | > 25 | >25.00 | >25.00 | – |
| C[C@@H]1CC(C)(C)Nc2c(C(=O)N[C@@H](C)/C=C/S(C)(=O)=O)cccc21 [Compound 13] | – | – | – | – | inhibition at 0.9 µM (VEEV nsP2 protease): ~71% |
| COC(=O)/C=C/CNC(=O)c1cccc2c1NC(C)(C)C=C2C [Compound 1] | – | – | – | – | EC50 (VEEV (IC-SH3) [3]): 0.55 µM; EC50 (VEEV (IC-SH3) [4]): 6.48 µM |
| C[C@@H]1CC(C)(C)Nc2c(C(=O)NC/C=C/S(C)(=O)=O)cccc21 [Compound 11] | – | – | – | – | inhibition at 0.9 µM (VEEV nsP2 protease): ~39% |
| CS(=O)(=O)/C=C/[C@H](Cc1ccccc1)NC(=O)c1cccc2cccnc12 [Compound 36] | > 25 | > 25 | >25.00 | >25.00 | – |
| Cc1ccc2cccc(C(=O)NC/C=C/S(C)(=O)=O)c2n1 [Compound 31] | > 25 | > 25 | >25.00 | >25.00 | – |
| COC(=O)/C=C/CNC(=O)c1ccccc1Nc1ccccc1 [Compound 19] | > 25 | > 25 | >25.00 | >25.00 | – |
| COC(=O)/C=C/[C@H](Cc1ccccc1)NC(=O)c1cc(C)cc2c1NC(C)(C)C=C2C [Compound 30] | > 50 | > 50 | >50.00 | >50.00 | – |
| COC(=O)/C=C/C(C)(C)NC(=O)c1cccc2c1NC(C)(C)C=C2C [Compound 26] | > 25 | > 25 | >25.00 | >25.00 | – |
| COC(=O)/C=C/CNC(=O)c1ccccc1Nc1c(Cl)ccc(C)c1Cl [Compound 23] | > 25 | > 25 | >25.00 | 23.53 | – |
| COC(=O)/C=C/[C@H](C)NC(=O)c1cccc2c1NC(C)(C)C=C2C [Compound 24] | > 25 | > 25 | >25.00 | >25.00 | – |
| CS(=O)(=O)/C=C/CNC(=O)c1ccccc1Nc1cccc(Cl)c1Cl [Compound 33] | > 25 | > 25 | 5.86 | 15.48 | – |
